Source: patent US20070128217A1 (priority 2003, published 2007)

What was measured:
[1] = test system: rabbit serum obtained by immunizing a rabbit with the SARS-CoV strain Frankfurt 1; format: binding; parameters: Binding of a rabbit serum to linear peptides / Binding of a rabbit serum to looped peptides / Rabbit serum linear peptides / Rabbit serum looped peptides / Binding of a rabbit serum to linear peptides of protein N of SARS-CoV Urbani (Rabbit serum linear peptides) / Binding of a rabbit serum to looped/cyclic peptides of protein N of SARS-CoV Urbani (Rabbit serum looped peptides): unit not given here
[2] = test system: antibodies in sera from SARS patients (sera 1a, 1b, 2, 6, 37, 62, London, SARS-yellow, SARS-green); format: binding, human; parameters: Binding of serum 6 to linear peptides of protein X1 of SARS-CoV Urbani / Binding of serum 37 to linear peptides of protein X1 of SARS-CoV Urbani / Binding of serum 6 to looped/cyclic peptide (PEPSCAN-ELISA) / Binding of serum 37 to looped/cyclic peptide (PEPSCAN-ELISA) / Binding of serum 37 to looped/cyclic peptides of protein X1 of SARS-CoV Urbani / Binding of serum 6 to linear peptides of protein X2 / Binding of serum 37 to linear peptides of protein X2 / Binding of serum 37 to looped/cyclic peptides of protein X2 of SARS-CoV Urbani / Binding of serum 6 to linear peptides of protein M of SARS-CoV Urbani / Binding of serum 37 to linear peptides of protein M of SARS-CoV Urbani / Binding of serum 6 to looped/cyclic peptides of protein M of SARS-CoV Urbani / Binding of serum 37 to looped/cyclic peptides of protein M of SARS-CoV Urbani / Binding of serum 6 to linear peptides of protein X3 of SARS-CoV Urbani / Binding of serum 37 to linear peptides of protein X3 of SARS-CoV Urbani / Binding of serum 37 to looped/cyclic peptides of protein X3 of SARS-CoV Urbani / Binding of serum 6 to linear peptides of protein X4 of SARS-CoV Urbani / Binding of serum 37 to linear peptides of protein X4 of SARS-CoV Urbani / Binding of serum 37 to looped/cyclic peptides of protein X4 of SARS-CoV Urbani / Binding of serum 6 to linear peptides of protein X5 of SARS-CoV Urbani / Binding of serum 37 to linear peptides of protein X5 of SARS-CoV Urbani / Binding of serum 37 to looped/cyclic peptides of protein X5 of SARS-CoV Urbani / Binding of serum 6 to linear peptides of protein N of SARS-CoV Urbani / Binding of serum 37 to linear peptides of protein N of SARS-CoV Urbani / Binding of serum 6 to linear peptide (PEPSCAN-ELISA) / Binding of serum 1a to looped/cyclic peptides of protein N of SARS-CoV Urbani / Binding of serum 1b to looped/cyclic peptides of protein N of SARS-CoV Urbani / Binding of serum 2 to looped/cyclic peptides of protein N of SARS-CoV Urbani / Binding of serum 6 to looped/cyclic peptides of protein N of SARS-CoV Urbani / Binding of serum 37 to looped/cyclic peptides of protein N of SARS-CoV Urbani / Binding of serum 62 to looped/cyclic peptides of protein N of SARS-CoV Urbani / Binding of serum London to looped/cyclic peptides of protein N of SARS-CoV Urbani / Binding of serum SARS-green to looped/cyclic peptides of protein N of SARS-CoV Urbani: unit not given here
[3] = test system: control sera (pooled serum of ten healthy LUMC hospital workers; commercial negative donor pooled serum from the Dutch bloodbank); format: binding, human

Sequence: TALRLCAYCCNIVNV
- Binding of a rabbit serum to linear peptides [1]: 0.2
- Binding of a rabbit serum to looped peptides [1]: 0.4
- Binding of serum 1a to linear peptides of protein E of SARS-CoV Urbani [2]: 0.7
- Binding of serum 1a to looped/cyclic peptides of protein E of SARS-CoV Urbani [2]: 0.7
- Binding of serum 1b to linear peptides of protein E of SARS-CoV Urbani [2]: 0.5
- Binding of serum 1b to looped/cyclic peptides of protein E of SARS-CoV Urbani [2]: 0.4
- Binding of serum 2 to linear peptides of protein E of SARS-CoV Urbani [2]: 0.5
- Binding of serum 2 to looped/cyclic peptides of protein E of SARS-CoV Urbani [2]: 0.8
- Binding of serum 6 to linear peptides of protein E of SARS-CoV Urbani [2]: 0.4
- Binding of serum 6 to looped/cyclic peptides of protein E of SARS-CoV Urbani [2]: 0.6
- Binding of serum 37 to linear peptides of protein E of SARS-CoV Urbani [2]: 0.5
- Binding of serum 37 to looped/cyclic peptides of protein E of SARS-CoV Urbani [2]: 0.7
- Binding of serum 62 to linear peptides of protein E of SARS-CoV Urbani [2]: 0.5
- Binding of serum 62 to looped/cyclic peptides of protein E of SARS-CoV Urbani [2]: 0.9
- Binding of serum London to linear peptides of protein E of SARS-CoV Urbani [2]: 0.5
- Binding of serum London to looped/cyclic peptides of protein E of SARS-CoV Urbani [2]: 0.5
- Binding of serum SARS-green to linear peptides of protein E of SARS-CoV Urbani [2]: 0.6
- Binding of serum SARS-green to looped/cyclic peptides of protein E of SARS-CoV Urbani [2]: 0.7
- Binding of serum SARS-yellow to linear peptides of protein E of SARS-CoV Urbani [2]: 0.2
- Binding of serum SARS-yellow to looped/cyclic peptides of protein E of SARS-CoV Urbani [2]: 0.9
- Binding of Control Serum Blood-Bank to Looped peptides [3]: 0.7
- Binding of Control serum Blood-bank to linear peptides [3]: 0.5
- Binding of Control serum LUMC to linear peptides [3]: 0.6
- Binding of Control serum LUMC to looped peptides [3]: 0.7

Sequence: TLIVNSVLLFLAFVV
- Binding of a rabbit serum to linear peptides [1]: 0.1
- Binding of a rabbit serum to looped peptides [1]: 0.3
- Binding of serum 1a to linear peptides of protein E of SARS-CoV Urbani [2]: 0.7
- Binding of serum 1a to looped/cyclic peptides of protein E of SARS-CoV Urbani [2]: 0.6
- Binding of serum 1b to linear peptides of protein E of SARS-CoV Urbani [2]: 0.5
- Binding of serum 1b to looped/cyclic peptides of protein E of SARS-CoV Urbani [2]: 0.5
- Binding of serum 2 to linear peptides of protein E of SARS-CoV Urbani [2]: 0.4
- Binding of serum 2 to looped/cyclic peptides of protein E of SARS-CoV Urbani [2]: 0.7
- Binding of serum 6 to linear peptides of protein E of SARS-CoV Urbani [2]: 0.5
- Binding of serum 6 to looped/cyclic peptides of protein E of SARS-CoV Urbani [2]: 0.4
- Binding of serum 37 to linear peptides of protein E of SARS-CoV Urbani [2]: 0.5
- Binding of serum 37 to looped/cyclic peptides of protein E of SARS-CoV Urbani [2]: 0.7
- Binding of serum 62 to linear peptides of protein E of SARS-CoV Urbani [2]: 0.3
- Binding of serum 62 to looped/cyclic peptides of protein E of SARS-CoV Urbani [2]: 0.6
- Binding of serum London to linear peptides of protein E of SARS-CoV Urbani [2]: 0.6
- Binding of serum London to looped/cyclic peptides of protein E of SARS-CoV Urbani [2]: 0.4
- Binding of serum SARS-green to linear peptides of protein E of SARS-CoV Urbani [2]: 0.6
- Binding of serum SARS-green to looped/cyclic peptides of protein E of SARS-CoV Urbani [2]: 0.5
- Binding of serum SARS-yellow to linear peptides of protein E of SARS-CoV Urbani [2]: 0.3
- Binding of serum SARS-yellow to looped/cyclic peptides of protein E of SARS-CoV Urbani [2]: 0.6
- Binding of Control Serum Blood-Bank to Looped peptides [3]: 0.8
- Binding of Control serum Blood-bank to linear peptides [3]: 0.6
- Binding of Control serum LUMC to linear peptides [3]: 0.4
- Binding of Control serum LUMC to looped peptides [3]: 0.8

Sequence: VDFQVTIAEILIIIM
- Rabbit serum linear peptides [1]: 0.3
- Rabbit serum looped peptides [1]: 0.3
- Binding of serum 1a to linear peptides of protein X3 of SARS-CoV Urbani [2]: 0.8
- Binding of serum 1a to looped/cyclic peptides of protein X3 of SARS-CoV Urbani [2]: 0.7
- Binding of serum 1b to linear peptides of protein X3 of SARS-CoV Urbani [2]: 0.5
- Binding of serum 1b to looped/cyclic peptides of protein X3 of SARS-CoV Urbani [2]: 0.4
- Binding of serum 2 to linear peptides of protein X3 of SARS-CoV Urbani [2]: 0.7
- Binding of serum 2 to looped/cyclic peptides of protein X3 of SARS-CoV Urbani [2]: 0.6
- Binding of serum 6 to linear peptides of protein X3 of SARS-CoV Urbani [2]: 0.5
- Binding of serum 6 to looped/cyclic peptides of protein X3 of SARS-CoV Urbani [2]: 0.3
- Binding of serum 37 to linear peptides of protein X3 of SARS-CoV Urbani [2]: 0.5
- Binding of serum 37 to looped/cyclic peptides of protein X3 of SARS-CoV Urbani [2]: 0.6
- Binding of serum 62 to linear peptides of protein X3 of SARS-CoV Urbani [2]: 0.6
- Binding of serum 62 to looped/cyclic peptides of protein X3 of SARS-CoV Urbani [2]: 0.6
- Binding of serum London to linear peptides of protein X3 of SARS-CoV Urbani [2]: 0.6
- Binding of serum London to looped/cyclic peptides of protein X3 of SARS-CoV Urbani [2]: 0.2
- Binding of serum SARS-green to linear peptides of protein X3 of SARS-CoV Urbani [2]: 0.4
- Binding of serum SARS-green to looped/cyclic peptides of protein X3 of SARS-CoV Urbani [2]: 0.3
- Binding of serum SARS-yellow to linear peptides of protein X3 of SARS-CoV Urbani [2]: 0.6
- Binding of serum SARS-yellow to looped/cyclic peptides of protein X3 of SARS-CoV Urbani [2]: 0.8
- Binding of Control Serum Blood-Bank to Looped peptides of the protein X3 of SARS-CoV Urbani [3]: 0.6
- Binding of Control serum Blood-bank to linear peptides of the protein X3 of SARS-CoV Urbani [3]: 0.8
- Binding of Control serum LUMC to linear peptides of the protein X3 of SARS-CoV Urbani [3]: 0.8
- Binding of Control serum LUMC to looped peptides of the protein X3 of SARS-CoV Urbani [3]: 0.8

Sequence: VNSVLLFLAFVVFLL
- Binding of a rabbit serum to linear peptides [1]: 0.2
- Binding of a rabbit serum to looped peptides [1]: 0.4
- Binding of serum 1a to linear peptides of protein E of SARS-CoV Urbani [2]: 0.9
- Binding of serum 1a to looped/cyclic peptides of protein E of SARS-CoV Urbani [2]: 0.6
- Binding of serum 1b to linear peptides of protein E of SARS-CoV Urbani [2]: 0.1
- Binding of serum 1b to looped/cyclic peptides of protein E of SARS-CoV Urbani [2]: 0.4
- Binding of serum 2 to linear peptides of protein E of SARS-CoV Urbani [2]: 1.1
- Binding of serum 2 to looped/cyclic peptides of protein E of SARS-CoV Urbani [2]: 0.5
- Binding of serum 6 to linear peptides of protein E of SARS-CoV Urbani [2]: 0.6
- Binding of serum 6 to looped/cyclic peptides of protein E of SARS-CoV Urbani [2]: 0.3
- Binding of serum 37 to linear peptides of protein E of SARS-CoV Urbani [2]: 0.5
- Binding of serum 37 to looped/cyclic peptides of protein E of SARS-CoV Urbani [2]: 0.6
- Binding of serum 62 to linear peptides of protein E of SARS-CoV Urbani [2]: 0.2
- Binding of serum 62 to looped/cyclic peptides of protein E of SARS-CoV Urbani [2]: 0.7
- Binding of serum London to linear peptides of protein E of SARS-CoV Urbani [2]: 1.4
- Binding of serum London to looped/cyclic peptides of protein E of SARS-CoV Urbani [2]: 0.3
- Binding of serum SARS-green to linear peptides of protein E of SARS-CoV Urbani [2]: 0.7
- Binding of serum SARS-green to looped/cyclic peptides of protein E of SARS-CoV Urbani [2]: 0.4
- Binding of serum SARS-yellow to linear peptides of protein E of SARS-CoV Urbani [2]: 0.6
- Binding of serum SARS-yellow to looped/cyclic peptides of protein E of SARS-CoV Urbani [2]: 0.6
- Binding of Control Serum Blood-Bank to Looped peptides [3]: 0.5
- Binding of Control serum Blood-bank to linear peptides [3]: 0.5
- Binding of Control serum LUMC to linear peptides [3]: 0.4
- Binding of Control serum LUMC to looped peptides [3]: 0.7

Sequence: VTLAILTALRLCAYC
- Binding of a rabbit serum to linear peptides [1]: 0.1
- Binding of a rabbit serum to looped peptides [1]: 0.4
- Binding of serum 1a to linear peptides of protein E of SARS-CoV Urbani [2]: 0.6
- Binding of serum 1a to looped/cyclic peptides of protein E of SARS-CoV Urbani [2]: 0.7
- Binding of serum 1b to linear peptides of protein E of SARS-CoV Urbani [2]: 0.5
- Binding of serum 1b to looped/cyclic peptides of protein E of SARS-CoV Urbani [2]: 0.5
- Binding of serum 2 to linear peptides of protein E of SARS-CoV Urbani [2]: 0.6
- Binding of serum 2 to looped/cyclic peptides of protein E of SARS-CoV Urbani [2]: 0.9
- Binding of serum 6 to linear peptides of protein E of SARS-CoV Urbani [2]: 0.3
- Binding of serum 6 to looped/cyclic peptides of protein E of SARS-CoV Urbani [2]: 0.6
- Binding of serum 37 to linear peptides of protein E of SARS-CoV Urbani [2]: 0.4
- Binding of serum 37 to looped/cyclic peptides of protein E of SARS-CoV Urbani [2]: 0.6
- Binding of serum 62 to linear peptides of protein E of SARS-CoV Urbani [2]: 0.4
- Binding of serum 62 to looped/cyclic peptides of protein E of SARS-CoV Urbani [2]: 0.8
- Binding of serum London to linear peptides of protein E of SARS-CoV Urbani [2]: 0.5
- Binding of serum London to looped/cyclic peptides of protein E of SARS-CoV Urbani [2]: 0.5
- Binding of serum SARS-green to linear peptides of protein E of SARS-CoV Urbani [2]: 0.5
- Binding of serum SARS-green to looped/cyclic peptides of protein E of SARS-CoV Urbani [2]: 0.5
- Binding of serum SARS-yellow to linear peptides of protein E of SARS-CoV Urbani [2]: 0.2
- Binding of serum SARS-yellow to looped/cyclic peptides of protein E of SARS-CoV Urbani [2]: 0.7
- Binding of Control Serum Blood-Bank to Looped peptides [3]: 0.9
- Binding of Control serum Blood-bank to linear peptides [3]: 0.5
- Binding of Control serum LUMC to linear peptides [3]: 0.6
- Binding of Control serum LUMC to looped peptides [3]: 0.8
